In ChEMBL document CHEMBL4382262, “Structurally Simple, Readily Available Peptidomimetic 1-Benzyl-5-methyl-4-( n-octylamino)pyrimidin-2(1 H)-one Exhibited Efficient Cardioprotection in a Myocardial Ischemia (MI) Mouse Model” (J Med Chem, 2018):
The source made the active and inactive calls.

Legend:
[1] = molecular target: T1, Toll-like receptor 4 (Rattus norvegicus) (UniProt Q9QX05); assay: Inhibition of TLR4 in Sprague-Dawley rat cardiomyocytes assessed as reduction in hypoxia-induced creatine kinase levels at 5 uM preincubated for 1 hr followed by hypoxia for 3 hrs by NADP reduction based colorimetric analysis; format: cell-based
T1 sequence (whole entry): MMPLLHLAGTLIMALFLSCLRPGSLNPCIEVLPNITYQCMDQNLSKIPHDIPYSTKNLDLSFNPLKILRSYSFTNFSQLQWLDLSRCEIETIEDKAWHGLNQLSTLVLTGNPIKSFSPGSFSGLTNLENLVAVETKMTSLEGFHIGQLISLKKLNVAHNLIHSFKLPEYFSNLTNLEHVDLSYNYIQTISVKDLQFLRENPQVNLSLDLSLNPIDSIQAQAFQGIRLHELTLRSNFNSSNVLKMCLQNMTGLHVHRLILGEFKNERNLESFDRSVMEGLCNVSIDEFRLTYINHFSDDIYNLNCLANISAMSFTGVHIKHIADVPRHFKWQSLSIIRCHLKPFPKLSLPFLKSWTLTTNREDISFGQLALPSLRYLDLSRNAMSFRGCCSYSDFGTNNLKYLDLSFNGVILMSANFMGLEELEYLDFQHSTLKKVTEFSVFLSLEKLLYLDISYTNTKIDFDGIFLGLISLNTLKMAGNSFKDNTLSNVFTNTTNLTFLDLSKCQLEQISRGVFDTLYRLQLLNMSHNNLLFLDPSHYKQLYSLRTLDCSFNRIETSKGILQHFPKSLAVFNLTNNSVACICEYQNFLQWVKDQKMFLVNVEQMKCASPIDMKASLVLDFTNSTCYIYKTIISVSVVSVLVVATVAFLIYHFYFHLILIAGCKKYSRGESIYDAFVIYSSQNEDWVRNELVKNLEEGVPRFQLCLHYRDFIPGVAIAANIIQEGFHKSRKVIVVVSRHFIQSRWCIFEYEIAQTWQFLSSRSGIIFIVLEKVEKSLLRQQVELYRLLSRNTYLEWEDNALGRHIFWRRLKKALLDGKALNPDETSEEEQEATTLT

Mus musculus [2] = assay: Cardioprotective activity in C57BL mouse model of left anterior descending coronary artery ligation-induced myocardial ischemia assessed as reduction in heart infarct size at 0.3 mg/kg, iv pretreated for 1 hr followed by left anterior descending coronary artery ligation; format: functional, organism-based
[3] = molecular target: T1, Toll-like receptor 4 (Rattus norvegicus); assay: Inhibition of TLR4 in Sprague-Dawley rat cardiomyocytes assessed as reduction in hypoxia-induced IRF3 protein expression at 20 uM preincubated for 1 hr followed by hypoxia for 3 hrs by Western blot analysis relative to untreated control; format: cell-based
Mus musculus [4] = assay: (§1) Cardioprotective activity in C57BL mouse model of left anterior descending coronary artery ligation-induced myocardial ischemia assessed as reduction in heart infarct size at 0.3 mg/kg, iv treated 1 hr after left anterior descending coronary artery ligation and measured after 7 days post LAD; format: functional, organism-based
[5] = molecular target: T1, Toll-like receptor 4 (Rattus norvegicus); assay: Inhibition of TLR4 in Sprague-Dawley rat cardiomyocytes assessed as reduction in hypoxia-induced LDH release at 10 uM preincubated for 1 hr followed by hypoxia for 3 hrs by NADH detection based colorimetric analysis; format: cell-based
Mus musculus [6] = assay: Cardioprotective activity in C57BL mouse model of left anterior descending coronary artery ligation-induced myocardial ischemia assessed as reduction in heart infarct size at 0.05 to 1 mg/kg, iv pretreated for 1 hr followed by left anterior descending coronary artery ligation; format: functional, organism-based
[7] = Hepatotoxicity in C57BL mouse model of left anterior descending coronary artery ligation-induced myocardial ischemia assessed as effect on serum AST levels at 0.05 to 1 mg/kg, iv pretreated for 1 hr followed by left anterior descending coronary artery ligation; format: toxicity, organism-based; details: in vivo
Mus musculus [8] = assay: as §1, with “leukocyte infiltration” for “heart infarct size”, “LAD by hematoxylin/eosin staining based light microscopy” for “LAD”; format: functional, organism-based
[9] = molecular target: T1, Toll-like receptor 4 (Rattus norvegicus); assay: Inhibition of TLR4 in Sprague-Dawley rat cardiomyocytes assessed as reduction in hypoxia-induced creatine kinase levels at 20 uM preincubated for 1 hr followed by hypoxia for 3 hrs by NADP reduction based colorimetric analysis; format: cell-based
Mus musculus [10] = assay: Cardioprotective activity in C57BL mouse model of left anterior descending coronary artery ligation-induced myocardial ischemia assessed as reduction in LDH […] levels at 0.3 mg/kg, iv pretreated for 1 hr followed by left anterior descending coronary artery ligation; format: functional, organism-based
Mus musculus [11] = assay: as §1, with “fibrosis” for “heart infarct size”, “LAD by hematoxylin/eosin staining based light microscopy” for “LAD”; format: functional, organism-based
Mus musculus [12] = assay: Cardioprotective activity in C57BL mouse model of left anterior descending coronary artery ligation-induced myocardial ischemia assessed as reduction in troponin levels at 0.3 mg/kg, iv pretreated for 1 hr followed by left anterior descending coronary artery ligation; format: functional, organism-based
[13] = molecular target: T1, Toll-like receptor 4 (Rattus norvegicus); assay: Inhibition of TLR4 in Sprague-Dawley rat cardiomyocytes assessed as reduction in hypoxia-induced LDH release at 5 uM preincubated for 1 hr followed by hypoxia for 3 hrs by NADH detection based colorimetric analysis; format: cell-based
Mus musculus [14] = assay: (§2) Cardioprotective activity in C57BL mouse model of left anterior descending coronary artery ligation-induced myocardial ischemia assessed as reduction in creatine kinase levels at 0.3 mg/kg, iv treated 1 hr after by left anterior descending coronary artery ligation and measured after 7 days post LAD; format: functional, organism-based
[15] = molecular target: T1, Toll-like receptor 4 (Rattus norvegicus); assay: Inhibition of TLR4 in Sprague-Dawley rat cardiomyocytes assessed as reduction in hypoxia-induced LDH release at 30 uM preincubated for 1 hr followed by hypoxia for 3 hrs by NADH detection based colorimetric analysis; format: cell-based
Mus musculus [16] = assay: Cardioprotective activity in C57BL mouse model of left anterior descending coronary artery ligation-induced myocardial ischemia assessed as reduction in creatine kinase levels at 0.3 mg/kg, iv pretreated for 1 hr followed by left anterior descending coronary artery ligation; format: functional, organism-based
Mus musculus [17] = assay: as §2, with “levels levels” for “levels”, “24 hrs” for “7 days”; format: functional, organism-based
Cardiac muscle cell = assay: Cytotoxicity against Sprague-Dawley rat cardiomyocytes assessed as reduction in cell viability at 50 uM; format: cell-based
Mus musculus [18] = assay: Cardioprotective activity in C57BL mouse model of left anterior descending coronary artery ligation-induced myocardial ischemia assessed as reduction in serum LDH levels at 0.3 mg/kg, iv treated 1 hr after by left anterior descending coronary artery ligation and measured after 7 days post LAD; format: functional, organism-based
[19] = molecular target: T1, Toll-like receptor 4 (Rattus norvegicus); assay: Inhibition of TLR4 in Sprague-Dawley rat cardiomyocytes assessed as reduction in hypoxia-induced creatine kinase levels at 30 uM preincubated for 1 hr followed by hypoxia for 3 hrs by NADP reduction based colorimetric analysis; format: cell-based
[20] = molecular target: T1, Toll-like receptor 4 (Rattus norvegicus); assay: Inhibition of TLR4 in Sprague-Dawley rat cardiomyocytes assessed as reduction in hypoxia-induced IL-1beta mRNA expression at 20 uM preincubated for 1 hr followed by hypoxia for 3 hrs by RT-qPCR analysis; format: cell-based
[21] = molecular target: T1, Toll-like receptor 4 (Rattus norvegicus); assay: Binding affinity to TLR4 in Sprague-Dawley rat cardiomyocytes at 20 uM after 2 hrs by MS/MS-based pull down assay; format: cell-based
Mus musculus [22] = assay: Cardioprotective activity in C57BL mouse model of left anterior descending coronary artery ligation-induced myocardial ischemia assessed as reduction in heart infarct size at 0.3 mg/kg, iv treated 1 hr after left anterior descending coronary artery ligation and measured after 24 hrs post LAD; format: functional, organism-based

CCCCCCCCNc1nc(=O)n(Cc2ccccc2)cc1C
Non-Toxic: Activity [7]
inactive: inhibition [1] | inhibition [13] | Activity (Mus musculus [22])
2.7: fold change (FC) [3]
15: fold change (FC) [20]
active: Activity (Mus musculus [2]) | Activity (Mus musculus [4]) | inhibition [5] | Activity (Mus musculus [6]) | Activity (Mus musculus [8]) | inhibition [9] | Activity (Mus musculus [10]) | Activity (Mus musculus [11]) | Activity (Mus musculus [12]) | Activity (Mus musculus [14]) | inhibition [15] | Activity (Mus musculus [16]) | Activity (Mus musculus [17]) | Activity (Mus musculus [18]) | inhibition [19] | Activity [21]
Toxic: Activity (Cardiac muscle cell)
